Earlier results as cited in patent US20100285081A1, “Bactericidal Nanofibers, and Methods of Use Thereof” (MASSACHUSETTS INSTITUTE OF TECHNOLOGY, priority 2007, published 2010).

Legend:
E. coli = conditions: from Buxbaum et al. 2006
S. epidermidis = conditions: from Buxbaum et al. 2006

[H]/N=C(\N/C(=N/[H])NCCCCCCNC(=N)NC(=N)Nc1ccc(Cl)cc1)Nc1ccc(Cl)cc1 [CHX, chlorhexidine]
minimum inhibitory concentration of CHX (E. coli): 2 to 8 µg/mL | minimum inhibitory concentration of CHX (S. epidermidis): 0.5 to 2 µg/mL
